First: CC(=O)Nc1nc(CS(=O)(=O)c2ccc(N)cc2)cs1
Second: Nc1ccc(CON=Cc2csc(N)n2)cc1
The melting point of the first is lower: 135 to 137 °C for the first, 181 to 183 °C for the second.

First: COc1ccc(-c2cc(=O)c3c(O)cc(O)cc3o2)cc1OCC(O)CO (stereo not given)
Second: COc1ccc(Cn2c(N)cc(=O)[nH]c2=S)cc1OCc1ccccc1
The melting point of the first is lower: 215 to 218 °C for the first, 239 to 240 °C for the second.

Compared with `CCCCOc1c(CNC(=O)OC(C)(C)C)n(CC(C)(C)C)c(=O)c2ccc(/C=C/C(=O)O)cc12`, `CC(C)(C)OC(=O)NC(C)(C)c1ccc(C(=O)O)cc1` is higher in melting point: 138 to 139 °C for the first, 205 to 208 °C for the second.

First: COc1ccc(C(=O)c2ccc3c(c2)CC(C(=O)O)C3)cc1 (stereo not given)
Second: COc1ccc(C(=O)Nc2ccccc2C(O)c2ccccn2)cc1 (stereo not given)
The melting point of the first is higher: 149 to 151 °C for the first, 128 °C for the second.

First: O=C(C=Cc1ccc(Cl)cc1)C(CC=Cc1ccc(Cl)cc1)c1ccccc1 (stereo not given)
Second: O=C(O)CC(Sc1ccc(Cl)cc1)c1ccccc1 (stereo not given)
The melting point of the first is higher: 115 to 118 °C for the first, 90 to 92 °C for the second.

First: CCOC(=O)N1CCN(C(c2ccccc2)c2ccccc2)CC1(C)Cc1ccc2c(c1)OCCO2 (stereo not given)
Second: O=C(O)c1ccc(CN2C(=O)C3(COc4cc5c(cc43)OCCO5)c3ccccc32)o1 (stereo not given)
The melting point of the first is lower: 153 to 155 °C for the first, 192 to 195 °C for the second.

First: CCC1CC(=O)N(Cc2cccc(NC(=O)C(F)(F)C(F)(F)F)c2)N=C1c1ccc(OC)c(OC2CCCC2)c1 (stereo not given)
Second: O=C(N[C@H](Cc1cccc(OC(F)(F)C(F)F)c1)[C@@H](O)c1ccnc(F)c1)c1cccc2c1C=CCCC2 (racemic)
The melting point of the first is lower: 126 °C for the first, 159 to 160 °C for the second.

First: N#Cc1cncc(-c2ccc3c(c2)C2(CCCCC2)C(=O)N3)c1
Second: Cc1cc(NC(=O)NNc2cccc(C#N)c2)ccc1N1CCCCC1=O
The melting point of the first is higher: 232 to 234 °C for the first, 206 to 207 °C for the second.

`O=C1NC(N2CCCCCC2)=N/C1=C\c1c[nH]c2ncc(C(F)(F)F)cc12` and `O=c1[nH]c(N2CCC(N3CCCCC3)CC2)cc2ccccc12` cannot be ordered by melting point: 340 °C for the first, over 200 °C for the second.

First: COc1cccc(NC(=O)N(C)Cc2cccc3c2CN(C2CCC(=O)NC2=O)C3=O)c1 (stereo not given)
Second: C[C@@H]1S[C@@H](C(=O)Nc2ccc(CN3C(=O)CNC3=O)cc2)Cc2cc3c(cc2C1=O)OCO3
The melting point of the first is higher: 296 to 298 °C for the first, 139 to 144 °C for the second.

First: N#Cc1ccc(NC(=O)c2cccc(S(=O)(=O)N3CCOCC3)c2)c(-c2nnn[nH]2)c1
Second: N#Cc1c(N)nc2ccc(N3CCOCC3)cc2c1O
The melting point of the first is lower: 230 to 232 °C for the first, 291 °C for the second.

First: Cc1nc2c(OCc3c(Cl)ccc(S(=O)(=O)N4CCC[C@H]4C(=O)NCc4ccc(C=NN)cc4)c3Cl)cccn2c1C
Second: O=C(OCc1ccccc1)N1CCC2(CC1)CN(c1ccc(Cl)c(Cl)c1)C(=O)O2
The melting point of the first is higher: 144 to 146 °C for the first, 105 °C for the second.

First: COC(=O)C(CO)N(Cc1ccccc1[N+](=O)[O-])S(=O)(=O)c1ccc(OC)cc1 (stereo not given)
Second: COC(=O)C(=O)c1cc2ccccc2n1S(=O)(=O)c1ccccc1
The melting point of the first is higher: 127 to 129 °C for the first, 111 to 112 °C for the second.

First: N#Cc1ccc[nH]c1=S
Second: C=C(C)c1ccc(O)cc1
The melting point of the first is higher: 243 to 246 °C for the first, 167 to 168 °C for the second.

First: O=C1C=C(NC(=O)C(=O)c2cn(Cc3c(F)c(F)c(F)c(F)c3F)c3ccccc23)CO1
Second: O=C(O)c1cn(-c2ccc(F)cc2)c2c(F)c(N3Cc4ccc(F)cc4C3)c(F)cc2c1=O
The melting point of the first is lower: 280 to 282 °C for the first, over 300 °C for the second.

First: O=c1[nH]c(=O)n(CCCCN2CC=C(c3ccccc3)CC2)c2ccccc12
Second: COc1ccccc1N1CCN(CCNC(=O)CCN2CC=C(c3c[nH]c4cc(F)ccc34)CC2)CC1
The melting point of the first is lower: 170 to 174 °C for the first, 175 to 177 °C for the second.

Compared with `COc1cc(C(O)CN(c2nc3ccccc3[nH]2)C(C)CCn2cnc3ccccc32)ccc1OCc1ccccc1` (stereo not given), `COc1ccc(C(=O)/C=C/c2ncn(C(c3ccccc3)(c3ccccc3)c3ccccc3)c2C)c2ccccc12` is higher in melting point: 170 to 180 °C for the first, 235 to 237 °C for the second.

Compared with `CCN(C=O)Cc1ccc(NCCN(CC)CC)c2c(=O)c3ccccc3sc12`, `COC(=O)CCC(=O)c1cc2c(=O)c3ccccc3ccc2s1` is higher in melting point: 75 to 77 °C for the first, 144 to 145 °C for the second.

Going from `CS(=O)(=O)Nc1cccc(C=C2c3ccccc3CCc3ccccc32)c1` to `ON=C(c1ccccc1)c1cccc2nc(N[C@@H]3CCc4ccccc43)ccc12`, the melting point rises from 66.3 °C to 176 °C.

First: Oc1cccc2c1CCC2N1CCCCC1 (stereo not given)
Second: N#Cc1ncn2c1[C@@H]1CCCN1C(=O)c1ccccc1-2
The melting point of the first is lower: 134 to 136 °C for the first, 223 to 225 °C for the second.

Going from `CCOC(=O)c1c(N2CCN(C(=O)c3cccs3)CC2)c2cc(Cl)cnc2n(CC(=O)c2ccccc2)c1=O` to `O=C(Oc1ccccc1)N1CCCc2nc3ccccc3c(Cl)c2C1`, the melting point falls from 227 °C to 137 °C.

Compared with `CN(C)C=NS(=O)(=O)c1cc2cnc(C=O)cc2o1`, `CCOC(=O)c1cn(C)c2ccsc2c1=O` is lower in melting point: 186 to 188 °C for the first, 122 to 128 °C for the second.

First: Cc1occc1Sc1cncc2sc(C(N)=O)cc12
Second: CC(=O)Nc1coc2ccc(C(C)(C)C)cc2c1=S
The melting point of the first is higher: 236 to 239 °C for the first, 215 °C for the second.

Compared with `N=C(Nc1cc(Cl)cc(NC(=O)/C=C/c2ccccc2C(F)(F)F)c1)c1ccccc1F`, `O=C(c1ccc(-c2ccccc2)s1)c1ccc(Br)cc1Cl` is lower in melting point: 209 to 210 °C for the first, 132 to 134 °C for the second.

Compared with `CC(C)C(=O)NC1CCc2c(c3cc(-c4nnc(N)s4)ccc3n2Cc2cccc(F)c2)C1` (stereo not given), `O=C(c1ccc(F)cc1)N1CCC[C@H](c2noc(-c3ccc(F)cc3)n2)C1` is lower in melting point: 251 to 254 °C for the first, 120 to 123 °C for the second.

Compared with `O=S(=O)(O)c1ccc(Oc2ccc(-n3ccnc3)cc2)cc1`, `COc1cc(OC)c(-c2cccs2)cc1/C=C/C(=O)c1ccc(S(=O)(=O)NCCCn2ccnc2)cc1` is higher in melting point: 80 °C for the first, 160 to 162 °C for the second.

First: COc1cc(-c2nc(-n3c(C)ccc3C)sc2SCC2CCCC2)c(OC)cc1C
Second: CCOP(=O)(Cc1ccc(NC(=O)c2sc(SC)c3c2CCc2nc(C)oc2-3)cc1)OCC
The melting point of the first is lower: 108 °C for the first, 197 to 198 °C for the second.

First: COc1ccc(C(=O)O)c2c1OCCCO2
Second: Cc1c(C(=O)O)ccc(O)c1O
The melting point of the first is lower: 186 °C for the first, 200 to 201 °C for the second.

Compared with `CC1(c2ccc3c(c2)CC(=O)N3CC(F)(F)F)OCCO1`, `CCOC(=O)CN1C(=O)COc2cc(F)ccc21` is higher in melting point: 87 to 89 °C for the first, 90 to 91.5 °C for the second.

First: CN1CCN(CNc2nc(=O)n(CN3CCN(C)CC3)cc2F)CC1
Second: Cc1ccc(C(C)C)c2oc(SCCN3CCN(CC(=O)Nc4c(C(C)C)cccc4C(C)C)CC3)nc12
The melting point of the first is higher: 165 to 166 °C for the first, 133 to 134 °C for the second.

Compared with `NC(=O)c1cc(Cl)c(Cl)cc1C(=O)NCCN1CCC(c2noc3cc(F)ccc23)CC1`, `O=C(NCCCCN1CCC(c2cccc3ccccc23)CC1)c1ccc(NC(=O)c2ccc(Cl)cc2)cc1` is higher in melting point: 132 to 134 °C for the first, 264 °C for the second.

First: Cc1ccc2c3c(ccc2n1)OC[C@H](CN1CCC(Oc2ccc4c(c2)NC(=O)CO4)CC1)O3
Second: c1ccc(CN2CCC(Oc3ccccn3)CC2)cc1
The melting point of the first is higher: 149 to 150 °C for the first, 75 °C for the second.

First: Cn1nnnc1SCCl
Second: CC(C)On1nnc2ccc(Cn3ccnc3)cc21
The melting point of the first is lower: 55 to 57 °C for the first, 114 °C for the second.

First: Cc1ccc(C=C2c3ncc(C)cc3CCC2(C)C)cc1
Second: CN(C)CC1CCc2cc(OCc3ccc([N+](=O)[O-])cc3)ccc2C1 (stereo not given)
The melting point of the first is higher: 153 °C for the first, 83 to 89 °C for the second.

First: O=C1C(=O)c2ccccc2C2=C1SCC1(CCN(CC(O)CC(F)(F)F)CC1)O2 (stereo not given)
Second: O=C(Cn1nc(-c2ccccc2O)nc1-c1ccccc1O)NCC(O)CO (stereo not given)
The melting point of the first is lower: 145 to 148 °C for the first, 180 to 181 °C for the second.

First: Cc1ccc(NC(=O)c2cc(Cl)ccc2NCC2CCN(C3CCOCC3)CC2)nc1
Second: Cc1c(O)cccc1C(=O)N[C@@H](Cc1ccccc1)[C@H](O)C(=O)N1CSC(C)(C)[C@H]1C(=O)N[C@@H]1CCOc2ccccc21
The melting point of the first is higher: 166 to 168 °C for the first, 135 to 136 °C for the second.

Compared with `COC(=O)[C@@]1(c2ccc3ccccc3c2)CC1(c1ccccc1)c1ccccc1`, `N#CC(=CNc1ccccc1)Cc1cnc2ccccc2c1` is higher in melting point: 138 to 139 °C for the first, 202 to 203 °C for the second.

Going from `COc1cc(-c2cccc(Cl)c2)c2cc(C(O)(c3ccc(Cl)cc3)c3nncn3C)ccc2n1` (stereo not given) to `CC(=O)Nc1ccc2c(c1)C(c1cccn1-c1cc(Cl)cc(Cl)c1)C(=O)N2` (stereo not given), the melting point rises from 155 °C to 267 °C.

Compared with `CN1N=C(c2ccc(F)cc2)c2ccc(C(F)(F)F)cc2CS1(=O)=O`, `Fc1ccc(C2C=C(C(F)(F)F)NC3=C2SCC=C3)cc1Br` (stereo not given) is higher in melting point: 160 to 162 °C for the first, 195 to 198 °C for the second.

First: COC[C@@H](NC(C)=O)C(=O)NCc1ccc(N=[N+]=[N-])cc1
Second: CC#CCOc1ccc(S(=O)(=O)NC)cc1
The melting point of the first is higher: 149 to 150 °C for the first, 78 to 80 °C for the second.

First: C=CCOc1ccc2c(c1C=NO)OCO2
Second: O=C1CCC(O)(c2ccc3c(c2)OCO3)CC1
The melting point of the first is higher: 166 to 167 °C for the first, 162 to 164 °C for the second.

First: CC(C)n1nc(-c2cnc(N)nc2-c2ccccc2)ccc1=O
Second: COc1ccc(CN2C(=O)N([C@H](C)c3ccccc3)[C@H]3COC(=O)[C@H]32)cc1
The melting point of the first is higher: 214 to 215 °C for the first, 146 °C for the second.

First: O=C(O)Cc1c(C(=O)c2ccccc2)[nH]c2c(Cl)cccc12
Second: O=S(CCc1ccccc1)c1nc2cnccc2[nH]1 (stereo not given)
The melting point of the first is higher: 190 to 193 °C for the first, 171 to 174 °C for the second.

First: COC(=O)C1=CNC=Cc2c1n(C)c1ccccc21
Second: CNC(=O)Cn1c(-c2ccccn2)nc2cccnc21
The melting point of the first is lower: 131 to 132 °C for the first, 228 to 230 °C for the second.

First: COc1nnc2n1C=Cc1cc(Cl)ccc1C2
Second: CC(C)=C1OC(=O)N(c2ccc(Cl)cc2)C1=O
The melting point of the first is higher: 177 to 178 °C for the first, 135 to 136 °C for the second.

Compared with `CC(C)OC(=O)CC1SCN(c2ccc(Cl)c(Cl)c2)C1=O` (stereo not given), `CC(Cn1ncc2ccc3c(c21)NC(=O)CO3)NC(=O)OC(C)(C)C` (stereo not given) is higher in melting point: 54 to 56 °C for the first, 147 to 148 °C for the second.

First: CC1N=C(N(C)N)NN=C1c1ccccc1 (stereo not given)
Second: CC1CC2=C(N3CN(C)N=C3C(c3ccccc3Cl)=NC2)S1=O (stereo not given)
The melting point of the first is lower: 140 to 141 °C for the first, 199 to 200 °C for the second.

First: CCCc1c(OCCCOc2ccc(C(C)=O)c(OCc3ccccc3)c2CCC)ccc2c1OC(CO)CC2 (stereo not given)
Second: CCC1=NNC(C)=C(C(=O)OC(C)(C)C)C1c1cccc([N+](=O)[O-])c1 (stereo not given)
The melting point of the first is lower: 83 to 85 °C for the first, 122 °C for the second.

First: CCc1nn(CCO)c(CC)c1C(=O)c1cc(Cl)cc(Cl)c1
Second: CCOCc1nc2ncc(C)nc2c(=O)[nH]1
The melting point of the first is lower: 134 °C for the first, 181 to 183 °C for the second.

First: CC(C)Cn1cnc2c(N)nc3c(c21)NCCC3
Second: CC1(C)OCC2OC2CO1 (stereo not given)
The melting point of the first is higher: 222 to 226 °C for the first, 70 to 74 °C for the second.

From a melting point compilation (Tetko et al.; mined from patent text by program, amines drawn as free bases though some values may be those of a salt)
